Measured values: ChEMBL document CHEMBL1201862, “PubChem BioAssay data set” (2004)
The source made the active and inactive calls.

How the values were obtained:
Type in all cases: functional
[1] = molecular target: T1, Neuropeptides B/W receptor type 1 (Homo sapiens, UniProt P48145); assay: GPR7 antagonist potency, late-stage follow-up, cell-based, fluorescence, dose response, set 5 (AID 588566)
T1 sequence (P48145 whole entry): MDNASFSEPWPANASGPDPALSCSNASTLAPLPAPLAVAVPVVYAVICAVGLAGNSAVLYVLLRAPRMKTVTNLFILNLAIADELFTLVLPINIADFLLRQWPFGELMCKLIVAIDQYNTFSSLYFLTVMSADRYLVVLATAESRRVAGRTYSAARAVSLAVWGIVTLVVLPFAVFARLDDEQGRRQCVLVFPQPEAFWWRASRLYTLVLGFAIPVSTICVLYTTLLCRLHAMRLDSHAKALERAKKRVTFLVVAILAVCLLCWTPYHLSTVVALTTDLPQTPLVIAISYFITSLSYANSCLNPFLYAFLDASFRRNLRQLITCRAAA

[2] = molecular target: Melanin-concentrating hormone receptor 1 (Homo sapiens, UniProt Q99705); assay: Late-stage fluorescence-based counterscreen for antagonists of the G-protein coupled receptor 7 (GPR7): cell-based dose response assay to identify antagonists of the melanin-concentrating hormone receptor 1 (MCHR1) Set 5.
Melanin-concentrating hormone receptor 1, sequence (Q99705 whole entry): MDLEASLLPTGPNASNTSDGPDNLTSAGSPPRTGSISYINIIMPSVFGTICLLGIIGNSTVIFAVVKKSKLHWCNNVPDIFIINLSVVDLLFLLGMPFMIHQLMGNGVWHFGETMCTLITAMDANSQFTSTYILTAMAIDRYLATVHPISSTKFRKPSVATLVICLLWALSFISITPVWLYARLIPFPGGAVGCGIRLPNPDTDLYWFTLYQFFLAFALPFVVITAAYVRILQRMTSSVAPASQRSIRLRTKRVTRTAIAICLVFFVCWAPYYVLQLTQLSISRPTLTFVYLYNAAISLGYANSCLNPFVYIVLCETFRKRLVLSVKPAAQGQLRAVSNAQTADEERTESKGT

[3] = molecular target: Apoptotic protease-activating factor 1 (Homo sapiens, UniProt O14727); assay: SAR analysis of small molecule Activators of Apaf-1 in a Fluorescent assay - set 2.; settings: read-out: EC50_Mean
Apoptotic protease-activating factor 1, sequence (O14727 whole entry): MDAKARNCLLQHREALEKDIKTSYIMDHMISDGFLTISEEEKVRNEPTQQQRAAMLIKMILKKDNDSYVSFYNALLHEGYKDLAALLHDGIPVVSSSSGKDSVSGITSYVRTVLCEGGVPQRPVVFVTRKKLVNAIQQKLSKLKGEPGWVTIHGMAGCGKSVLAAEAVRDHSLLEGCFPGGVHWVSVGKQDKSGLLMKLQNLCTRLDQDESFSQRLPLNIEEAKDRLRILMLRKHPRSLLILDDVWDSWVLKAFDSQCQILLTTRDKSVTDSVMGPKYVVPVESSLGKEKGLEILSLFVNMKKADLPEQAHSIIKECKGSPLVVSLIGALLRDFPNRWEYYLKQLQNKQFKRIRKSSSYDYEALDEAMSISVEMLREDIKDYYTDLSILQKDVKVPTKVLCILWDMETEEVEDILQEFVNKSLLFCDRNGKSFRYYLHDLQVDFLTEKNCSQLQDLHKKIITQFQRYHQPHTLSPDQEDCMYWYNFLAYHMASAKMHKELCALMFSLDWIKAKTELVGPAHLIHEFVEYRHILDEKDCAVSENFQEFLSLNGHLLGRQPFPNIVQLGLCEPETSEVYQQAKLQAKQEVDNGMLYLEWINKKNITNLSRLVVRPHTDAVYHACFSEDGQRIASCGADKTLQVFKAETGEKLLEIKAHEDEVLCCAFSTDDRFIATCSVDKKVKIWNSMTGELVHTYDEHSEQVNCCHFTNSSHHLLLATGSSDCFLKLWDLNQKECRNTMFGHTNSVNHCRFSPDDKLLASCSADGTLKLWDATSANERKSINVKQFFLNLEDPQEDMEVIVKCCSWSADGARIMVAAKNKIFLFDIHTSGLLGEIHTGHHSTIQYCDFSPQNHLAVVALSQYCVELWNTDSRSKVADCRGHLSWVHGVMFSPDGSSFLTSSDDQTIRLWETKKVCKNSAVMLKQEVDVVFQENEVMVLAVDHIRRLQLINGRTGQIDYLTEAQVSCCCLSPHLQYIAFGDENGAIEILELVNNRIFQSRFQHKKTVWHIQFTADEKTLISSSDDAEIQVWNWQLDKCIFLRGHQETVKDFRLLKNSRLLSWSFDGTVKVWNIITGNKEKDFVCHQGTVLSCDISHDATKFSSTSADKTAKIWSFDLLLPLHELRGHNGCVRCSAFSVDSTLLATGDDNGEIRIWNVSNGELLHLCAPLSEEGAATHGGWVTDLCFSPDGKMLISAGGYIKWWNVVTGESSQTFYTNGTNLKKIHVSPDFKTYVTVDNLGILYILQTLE

[4] = SAR analysis of small molecule activators of Apaf-1 using a LZ-Caspase-9/Caspase-3 Fluorescent Selectivity assay - Set 2.; settings: read-out: EC50_Mean

Row | IC50 [1] | IC50 [2] | EC50 [3] | EC50 [4] | SMILES
1 | ~0.227 µM (active) | > 20 µM (inactive) | – | – | N#CC(c1ccccc1)c1cnn(Cc2cccc3ccccc23)c(=O)c1Br (centres undefined)
2 | – | – | 94.1 µM (active) | > 100 µM (inactive) | Cc1nc2ccccc2n1CC(C)C(=O)O (centres undefined)
